Results taken from publication PMC8505397, “Development of peptides targeting receptor binding site of the envelope glycoprotein to contain the West Nile virus infection” (Scientific Reports, 2021).
Where “and” joins values, the source holds several entries; their conditions need not be identical. Equal entries are not always repeated. Where two headings read alike, the source gives them in different places.

Experiments:
[1] = target: T1, interaction between rDIII and ~ 15 kDa receptor of hBMECs (West Nile virus, UniProt P06935); assay: Blocking of interaction between rDIII and proteins of hBMECs by peptides (Western blot); type: binding, West Nile virus / human; conditions: 2.5 µg (0.19 nM) rDIII pre-incubated with tenfold molar excess (1.9 nM) of peptide
T1 construct: rDIII – recombinant domain III; made in house; host or cells: E. coli M15
T1 sequence (P06935 584-692 limits assumed): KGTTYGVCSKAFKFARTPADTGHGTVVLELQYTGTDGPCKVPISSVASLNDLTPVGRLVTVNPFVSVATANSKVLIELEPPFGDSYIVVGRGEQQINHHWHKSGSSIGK
Experimental: First, concentration-dependent ELISA and Western blot were performed to get the minimum concentration of rDIII required to show its interaction with hBMECs proteins. Details are presented in Supplementary Method S12 and Supplementary Method S13. Subsequently, the ability of 7-mer and 12-mer peptides to block the interaction between rDIII and proteins of hBMECs was tested. A tenfold molar excess of peptides was incubated with rDIII for 1 h at room temperature. Such pre-incubated rDIII was subsequently used in the assays. Details of both methods are described in Supplementary Method S12 and Supplementary Method S13. […]
Blocking of interaction between rDIII and proteins of hBMECs by peptides (Western blot).
Two hundred micrograms of proteins extracted from hBMECs were separated on 2-well PAGE […]
gel (12% polyacrylamide gel) and transferred on 0.45 μm nitrocellulose membrane (Amersham Protran; GE Healthcare) for 1 h at 30 V. Details of LDS-PAGE are described in Supplementary Methods S7. The membrane was cut horizontally to obtain proteins of molecular weight between ~10 kDa to ~25 kDa. Subsequently, this membrane was sliced vertically to obtain 0.3 cm strips, which were then used in Western blot (Supplementary Fig.
The NC strips with transblotted hBMECs proteins were first incubated with rDIII at various concentrations to find out the minimal concentration of rDIII required to detect the interaction with hBMECs proteins. Non-specific binding sites were blocked with 1% BSA in 0.05% TBST (pH 7.2) for 1 h at room temperature and constant shaking followed by a washing step for 5 min with 0.05% TBST. The NC strips were incubated with rDIII at different concentrations (5 µg, 2.5 µg, 2 µg, 1 µg, 500 ng) diluted in 1 mL of 0.05% TBST for 3 h at room temperature and constant shaking. After 3 washings with 0.05% TBST, strips were incubated with HisProbe-HRP conjugate (1:5,000 dilution in 0.1% BSA in 0.05% TBST; Thermo Fisher Scientific) for 30 min at room temperature. Six washings, each of 5 min were performed before incubating the strips in SuperSignal chemiluminescence substrate (Thermo Fisher Scientific). The signal was captured on the C-DiGit Blot Scanner (Odyssey CLx, LI-COR Biosciences). For negative control, rDIII was excluded from the above-mentioned protocol.
To block the interaction, the NC strips were blocked as described above.
Simultaneously, 2.5 µg (0.19 nM) of rDIII were pre-incubated with 2.75 µg of each peptide (10-fold molar excess; 1.9 nM) in TBS for 1 h at room temperature. Further on, strips were incubated with pre-incubated rDIII for 3 h at room temperature with constant shaking. After 3 washings with 0.05% TBST, strips were incubated with HisProbe-HRP conjugate as described above. […]

[2] = test system: WNV virus like particles (VLP) that possess C, M, and E proteins; conditions: for luciferase luminescence, original data (single wells, duplicates): Avg.VC 555022 / Avg.CC 1551.33 (plate 1), 522383 / 1614.33 (plate 2)

SMILES: CC[C@H](C)[C@@H]1NC(=O)[C@@H](NC(=O)[C@H](C)N)CSSC[C@@H](C(=O)NCC(=O)NCC(=O)NCC(=O)N[C@@H](CO)C(=O)O)NC(=O)[C@H](C)NC(=O)[C@H](CCCNC(=N)N)NC(=O)[C@H]([C@@H](C)O)NC(=O)[C@H](CO)NC(=O)[C@H](CO)NC(=O)[C@H](Cc2c[nH]cn2)NC1=O [CP4, CIHSSTRAC]
- inhibition of the interaction between rDIII and ~ 15 kDa hBMECs receptor (Western blot) [1]: inhibition of the interaction was confirmed
- EC50 ([2]; 48 h): 17 nM
- EC50 (neutralization of VLP) as concentration ([2]; 48 h): 119.4 ng/mL
- luciferase luminescence, original data (single wells, duplicates) ([2]; dilution 90): 125654 and 100462
- Avg. inhibition of VLP infection ([2]; dilution of peptide 30, 666 nanograms of peptide / well): 95%
- Avg. inhibition of VLP infection ([2]; dilution of peptide 90, 222 nanograms of peptide / well): 80%
- Avg. inhibition of VLP infection ([2]; dilution of peptide 270, 74 nanograms of peptide / well): 74%
- Avg. inhibition of VLP infection ([2]; dilution of peptide 810, 24.7 nanograms of peptide / well): 57%
- Avg. inhibition of VLP infection ([2]; dilution of peptide 2430, 8.2 nanograms of peptide / well): 33%
- Avg. inhibition of VLP infection ([2]; dilution of peptide 7290, 2.7 nanograms of peptide / well): 20%
- luciferase luminescence, original data (single wells, duplicates) ([2]; listed as B, dilution 30): 31234 and 31350
- luciferase luminescence, original data (single wells, duplicates) ([2]; listed as D, dilution 270): 151785 and 142766
- luciferase luminescence, original data (single wells, duplicates) ([2]; listed as E, dilution 810): 243092 and 236564
- luciferase luminescence, original data (single wells, duplicates) ([2]; listed as F, dilution 2430): 368265 and 376779
- luciferase luminescence, original data (single wells, duplicates) ([2]; listed as G, dilution 7290): 424174 and 466082
- half maximal effective concentration in nanograms/ml ([2]; sigmoidal 4PL interpolation from EC50 dilution): 119.48 nanograms/ml
- half maximal effective concentration in nanograms/well (150 ul) ([2]; well volume 150 ul, sigmoidal 4PL interpolation from EC50 dilution): 17.94 nanograms/well
